Reference: patent US20230128907A1, “PARIS POLYPHYLLA SAPONIN EXTRACT WITH ACTIVITY AGAINST MULTIDRUG-RESISTANT BACTERIA AND PREPARATION AND USE THEREOF” (XI'AN KANGYUANSHENG BIOMEDICAL TECHNOLOGY CO., LTD., priority 2021, published 2023)
Where a name gives a salt, the structure may show the parent alone.

Experiments:
Format in all cases: cell-based
[1] = test system: Multidrug-resistant Staphylococcus aureus 222; assay: MIC by liquid micro-dilution method; design: key: “+” means bacterial growth; “−” means no bacterial growth
Description: (§1) The minimum inhibitory concentration (MIC) of the extract was determined by liquid microdilution method.
(§2) Twenty-four hours before the experiment, the test strains preserved in low temperature were taken out and placed at room temperature. A small amount of bacterial liquid was drawn with a pipette, inoculated into the sterilized and cooled growth medium, and placed in a 35° C. incubator for 24 hours. A pipette was used to transfer a small amount of activated bacterial colonies to a sterilized dry test tube, diluted with medium to a turbidity similar to that of a 0.5 McFarland turbidimetric tube (1.5×10^8 CFU/mL), and then diluted with medium by […], so that the bacterial suspension concentration reaches 1.0×10^6 CFU/mL (diluted twice before being added to the wells, and the final bacterial concentration in the system being 5×10^5 CFU/mL) for MIC measurement.
(§3) In a sterile 96-well flat-bottom microculture plate, 100 μL of […] positive control solution was added to the No. […] 2-11 well, respectively. No. 12 well was solvent.
(§4) The plate was incubated in a 30° C. incubator for 24 hours, the experimental results were observed, and the minimum inhibitory concentration (MIC) values were determined. […] The difference was counted as “≤[…].” The above experiments were performed in parallel for 3 times. When the MIC value could be accurately repeated or only differed by one concentration, it was accepted. The higher concentration was used as the MIC value. When the MIC value differed by more than two concentrations, the experiment was repeated until it met the until requested.

[2] = test system: Multidrug-resistant Staphylococcus aureus 222; assay: In vitro antibacterial activity of combination of extract and antibacterial drug (MIC, FIC)
Escherichia coli [3] = assay: MIC by liquid micro-dilution method; design: key: “+” means bacterial growth; “−” means no bacterial growth
Description: as §1, §2, §3, §4

Escherichia coli [4] = assay: In vitro antibacterial activity of combination of extract and antibacterial drug (MIC, FIC)
Salmonella [5] = assay: MIC by liquid micro-dilution method; design: key: “+” means bacterial growth; “−” means no bacterial growth
Description: as §1, §2, §3, §4

[6] = test system: Multidrug-resistant Pseudomonas aeruginosa 174; assay: MIC by liquid micro-dilution method; design: key: “+” means bacterial growth; “−” means no bacterial growth
Description: as §1, §2, §3, §4

Salmonella [7] = assay: In vitro antibacterial activity of combination of extract and antibacterial drug (MIC, FIC)
[8] = test system: Multidrug-resistant Pseudomonas aeruginosa 174; assay: as above
[9] = Table 4, positive control 128 μg/mL (Table 3)
[10] = Table 6, positive control 128 μg/mL (Table 3)
[11] = Table 8, positive control 128 μg/mL (Table 3)
[12] = drug MIC in combination with the Paris Polyphylla Saponin Extract
[13] = Table 7, positive control 128 μg/mL (Table 3)

Compound: Cc1nnc(SCC2=C(C(=O)O)N3C(=O)[C@@H](NC(=O)Cn4cnnn4)[C@H]3SC2)s1 [Cefazolin sodium]
- bacterial growth [1, 9]: −
- bacterial growth [1, 10]: −
- bacterial growth [1, 11]: −
- Combination Treatment MIC Combination [2, 12]: 16 µg/mL
- Combination Treatment MIC Single ([2]; drug alone): 128 µg/mL

Compound: CO/N=C(\C(=O)N[C@@H]1C(=O)N2C(C(=O)O)=C(CSc3nc(=O)c(=O)[nH]n3C)CS[C@H]12)c1csc(N)n1 [Ceftriaxone sodium]
- bacterial growth (Escherichia coli [3]; [9]): −
- bacterial growth (Escherichia coli [3]; [10]): −
- bacterial growth (Escherichia coli [3]; [13]): −
- bacterial growth (Escherichia coli [3]; [11]): −
- Combination Treatment MIC Combination (Escherichia coli [4]; [12]): 0.5 µg/mL
- Combination Treatment MIC Single (Escherichia coli [4]; drug alone): 2 µg/mL

Compound: CC1CCC2(OC1)OC1CC3C4CC=C5CC(OC6OC(CO)C(OC7OC(C)C(OC8OC(C)C(O)C(O)C8O)C(O)C7O)C(O)C6OC6OC(C)C(O)C(O)C6O)CCC5(C)C4CCC3(C)C1C2C (stereo not drawn) [Polyphyllin II]
- bacterial growth (Escherichia coli [3]; Table 6, 0.25 μg/mL): +
- bacterial growth (Escherichia coli [3]; Table 6, 0.5 μg/mL): +
- bacterial growth (Escherichia coli [3]; Table 6, 1 μg/mL): +
- bacterial growth (Escherichia coli [3]; Table 6, 2 μg/mL): +
- bacterial growth (Escherichia coli [3]; Table 6, 4 μg/mL): +
- bacterial growth (Escherichia coli [3]; Table 6, 8 μg/mL): +
- bacterial growth (Escherichia coli [3]; Table 6, 16 μg/mL): +
- bacterial growth (Escherichia coli [3]; Table 6, 32 μg/mL): +
- bacterial growth (Escherichia coli [3]; Table 6, 64 μg/mL): +
- bacterial growth (Escherichia coli [3]; Table 6, 128 μg/mL): +
- bacterial growth (Escherichia coli [3]; Table 6, 256 μg/mL): +
- bacterial growth (Escherichia coli [3]; Table 6, 512 μg/mL): +
- bacterial growth (Escherichia coli [3]; Table 6, 1024 μg/mL): +
- bacterial growth ([1]; Table 6, 0.25 μg/mL): +
- bacterial growth ([1]; Table 6, 0.5 μg/mL): +
- bacterial growth ([1]; Table 6, 1 μg/mL): +
- bacterial growth ([1]; Table 6, 2 μg/mL): +
- bacterial growth ([1]; Table 6, 4 μg/mL): +
- bacterial growth ([1]; Table 6, 8 μg/mL): +
- bacterial growth ([1]; Table 6, 16 μg/mL): +
- bacterial growth ([1]; Table 6, 32 μg/mL): +
- bacterial growth ([1]; Table 6, 64 μg/mL): +
- bacterial growth ([1]; Table 6, 128 μg/mL): +
- bacterial growth ([1]; Table 6, 256 μg/mL): +
- bacterial growth ([1]; Table 6, 512 μg/mL): +
- bacterial growth ([1]; Table 6, 1024 μg/mL): +
- bacterial growth (Salmonella [5]; Table 6, 0.25 μg/mL): +
- bacterial growth (Salmonella [5]; Table 6, 0.5 μg/mL): +
- bacterial growth (Salmonella [5]; Table 6, 1 μg/mL): +
- bacterial growth (Salmonella [5]; Table 6, 2 μg/mL): +
- bacterial growth (Salmonella [5]; Table 6, 4 μg/mL): +
- bacterial growth (Salmonella [5]; Table 6, 8 μg/mL): +
- bacterial growth (Salmonella [5]; Table 6, 16 μg/mL): +
- bacterial growth (Salmonella [5]; Table 6, 32 μg/mL): +
- bacterial growth (Salmonella [5]; Table 6, 64 μg/mL): +
- bacterial growth (Salmonella [5]; Table 6, 128 μg/mL): +
- bacterial growth (Salmonella [5]; Table 6, 256 μg/mL): +
- bacterial growth (Salmonella [5]; Table 6, 512 μg/mL): +
- bacterial growth (Salmonella [5]; Table 6, 1024 μg/mL): +

Compound: CC1CCC2(OC1)OC1CC3C4CC=C5CC(OC6OC(CO)C(OC7OC(C)C(OC8OC(C)C(O)C(O)C8O)C(O)C7O)C(O)C6OC6OC(C)C(O)C(O)C6O)CCC5(C)C4CCC3(C)C1(O)C2C (stereo not drawn) [Polyphyllin VII]
- bacterial growth (Escherichia coli [3]; Table 8, 0.25 μg/mL): +
- bacterial growth (Escherichia coli [3]; Table 8, 0.5 μg/mL): +
- bacterial growth (Escherichia coli [3]; Table 8, 1 μg/mL): +
- bacterial growth (Escherichia coli [3]; Table 8, 2 μg/mL): +
- bacterial growth (Escherichia coli [3]; Table 8, 4 μg/mL): +
- bacterial growth (Escherichia coli [3]; Table 8, 8 μg/mL): +
- bacterial growth (Escherichia coli [3]; Table 8, 16 μg/mL): +
- bacterial growth (Escherichia coli [3]; Table 8, 32 μg/mL): +
- bacterial growth (Escherichia coli [3]; Table 8, 64 μg/mL): +
- bacterial growth (Escherichia coli [3]; Table 8, 128 μg/mL): +
- bacterial growth (Escherichia coli [3]; Table 8, 256 μg/mL): +
- bacterial growth (Escherichia coli [3]; Table 8, 512 μg/mL): +
- bacterial growth (Escherichia coli [3]; Table 8, 1024 μg/mL): +
- bacterial growth ([6]; Table 8, 0.25 μg/mL): +
- bacterial growth ([6]; Table 8, 0.5 μg/mL): +
- bacterial growth ([6]; Table 8, 1 μg/mL): +
- bacterial growth ([6]; Table 8, 2 μg/mL): +
- bacterial growth ([6]; Table 8, 4 μg/mL): +
- bacterial growth ([6]; Table 8, 8 μg/mL): +
- bacterial growth ([6]; Table 8, 16 μg/mL): +
- bacterial growth ([6]; Table 8, 32 μg/mL): +
- bacterial growth ([6]; Table 8, 64 μg/mL): +
- bacterial growth ([6]; Table 8, 128 μg/mL): +
- bacterial growth ([6]; Table 8, 256 μg/mL): +
- bacterial growth ([6]; Table 8, 512 μg/mL): +
- bacterial growth ([6]; Table 8, 1024 μg/mL): +
- bacterial growth ([1]; Table 8, 0.25 μg/mL): +
- bacterial growth ([1]; Table 8, 0.5 μg/mL): +
- bacterial growth ([1]; Table 8, 1 μg/mL): +
- bacterial growth ([1]; Table 8, 2 μg/mL): +
- bacterial growth ([1]; Table 8, 4 μg/mL): +
- bacterial growth ([1]; Table 8, 8 μg/mL): +
- bacterial growth ([1]; Table 8, 16 μg/mL): +
- bacterial growth ([1]; Table 8, 32 μg/mL): +
- bacterial growth ([1]; Table 8, 64 μg/mL): +
- bacterial growth ([1]; Table 8, 128 μg/mL): +
- bacterial growth ([1]; Table 8, 256 μg/mL): +
- bacterial growth ([1]; Table 8, 512 μg/mL): +
- bacterial growth ([1]; Table 8, 1024 μg/mL): +
- bacterial growth (Salmonella [5]; Table 8, 0.25 μg/mL): +
- bacterial growth (Salmonella [5]; Table 8, 0.5 μg/mL): +
- bacterial growth (Salmonella [5]; Table 8, 1 μg/mL): +
- bacterial growth (Salmonella [5]; Table 8, 2 μg/mL): +
- bacterial growth (Salmonella [5]; Table 8, 4 μg/mL): +
- bacterial growth (Salmonella [5]; Table 8, 8 μg/mL): +
- bacterial growth (Salmonella [5]; Table 8, 16 μg/mL): +
- bacterial growth (Salmonella [5]; Table 8, 32 μg/mL): +
- bacterial growth (Salmonella [5]; Table 8, 64 μg/mL): +
- bacterial growth (Salmonella [5]; Table 8, 128 μg/mL): +
- bacterial growth (Salmonella [5]; Table 8, 256 μg/mL): +
- bacterial growth (Salmonella [5]; Table 8, 512 μg/mL): +
- bacterial growth (Salmonella [5]; Table 8, 1024 μg/mL): +

Compound: C[C@@H]1CC[C@@]2(OC1)O[C@H]1C[C@H]3[C@@H]4CC=C5C[C@@H](O[C@@H]6O[C@H](CO)[C@@H](O)[C@H](O)[C@H]6O[C@@H]6O[C@@H](C)[C@H](O)[C@@H](O)[C@H]6O)CC[C@]5(C)[C@H]4CC[C@]3(C)[C@@]1(O)[C@@H]2C [Polyphyllin VI]
- bacterial growth (Escherichia coli [3]; Table 7, Conc. 0.25 μg/mL): +
- bacterial growth (Escherichia coli [3]; Table 7, Conc. 0.5 μg/mL): +
- bacterial growth (Escherichia coli [3]; Table 7, Conc. 1 μg/mL): +
- bacterial growth (Escherichia coli [3]; Table 7, Conc. 2 μg/mL): +
- bacterial growth (Escherichia coli [3]; Table 7, Conc. 4 μg/mL): +
- bacterial growth (Escherichia coli [3]; Table 7, Conc. 8 μg/mL): +
- bacterial growth (Escherichia coli [3]; Table 7, Conc. 16 μg/mL): +
- bacterial growth (Escherichia coli [3]; Table 7, Conc. 32 μg/mL): +
- bacterial growth (Escherichia coli [3]; Table 7, Conc. 64 μg/mL): +
- bacterial growth (Escherichia coli [3]; Table 7, Conc. 128 μg/mL): +
- bacterial growth (Salmonella [5]; Table 7, Conc. 0.25 μg/mL): +
- bacterial growth (Salmonella [5]; Table 7, Conc. 0.5 μg/mL): +
- bacterial growth (Salmonella [5]; Table 7, Conc. 1 μg/mL): +
- bacterial growth (Salmonella [5]; Table 7, Conc. 2 μg/mL): +
- bacterial growth (Salmonella [5]; Table 7, Conc. 4 μg/mL): +
- bacterial growth (Salmonella [5]; Table 7, Conc. 8 μg/mL): +
- bacterial growth (Salmonella [5]; Table 7, Conc. 16 μg/mL): +
- bacterial growth (Salmonella [5]; Table 7, Conc. 32 μg/mL): +
- bacterial growth (Salmonella [5]; Table 7, Conc. 64 μg/mL): +
- bacterial growth (Salmonella [5]; Table 7, Conc. 128 μg/mL): +

Compound: C[C@H]1COc2c(N3CCN(C)CC3)c(F)cc3c(=O)c(C(=O)O)cn1c23 [Levofloxacin hydrochloride]
- bacterial growth (Salmonella [5]; [9]): −
- bacterial growth (Salmonella [5]; [10]): −
- bacterial growth (Salmonella [5]; [13]): −
- bacterial growth (Salmonella [5]; [11]): −
- Combination Treatment MIC Combination (Salmonella [7]; [12]): 2 µg/mL
- Combination Treatment MIC Single (Salmonella [7]; drug alone): 4 µg/mL

Compound: Gentamicin sulfate
- bacterial growth [6, 9]: −
- bacterial growth [6, 11]: −
- Combination Treatment MIC Combination [8, 12]: 0.125 µg/mL
- Combination Treatment MIC Single ([8]; drug alone): 0.125 µg/mL
